Calls of active or inactive are those of the source.
Columns and labels:
[1] = Vero E6 cell cytotoxicity, dose response, cytotoxicity control for non-replicating M. tuberculosis project, secondary assay (AID 492998); type: functional, VeroE6; conditions: Vero C1008
INS1 = assay: INS-1E survival protection against cytokine death – cell-based, luminescence, retest, dose response (AID 449756); type: functional; conditions: Rattus norvegicus;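 note: cell death triggered by IL-1 beta plus TNF-alpha plus IFN-gamma mixture; protective hits raise ATP signal compared with cytokine alone wells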
[2] = HepG2 cell cytotoxicity, dose response, cytotoxicity control for non-replicating M. tuberculosis project (AID 489018); type: functional; conditions: Mycobacterium tuberculosis
[3] = NIH3T3 cell viability loss – ATP luminescence, mouse fibroblasts, counter-screen, dose response (AID 2010); type: functional, cell-based;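 note: cells exposed to compound for about 90 hours before reading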
Large T antigen = Large T antigen (Simian virus 40, UniProt P03070); type: functional, Betapolyomavirus macacae;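 note: Confirmatory-stage PubChem screen for compounds that inhibit SV40 T antigen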
Large T antigen, sequence (P03070 whole entry): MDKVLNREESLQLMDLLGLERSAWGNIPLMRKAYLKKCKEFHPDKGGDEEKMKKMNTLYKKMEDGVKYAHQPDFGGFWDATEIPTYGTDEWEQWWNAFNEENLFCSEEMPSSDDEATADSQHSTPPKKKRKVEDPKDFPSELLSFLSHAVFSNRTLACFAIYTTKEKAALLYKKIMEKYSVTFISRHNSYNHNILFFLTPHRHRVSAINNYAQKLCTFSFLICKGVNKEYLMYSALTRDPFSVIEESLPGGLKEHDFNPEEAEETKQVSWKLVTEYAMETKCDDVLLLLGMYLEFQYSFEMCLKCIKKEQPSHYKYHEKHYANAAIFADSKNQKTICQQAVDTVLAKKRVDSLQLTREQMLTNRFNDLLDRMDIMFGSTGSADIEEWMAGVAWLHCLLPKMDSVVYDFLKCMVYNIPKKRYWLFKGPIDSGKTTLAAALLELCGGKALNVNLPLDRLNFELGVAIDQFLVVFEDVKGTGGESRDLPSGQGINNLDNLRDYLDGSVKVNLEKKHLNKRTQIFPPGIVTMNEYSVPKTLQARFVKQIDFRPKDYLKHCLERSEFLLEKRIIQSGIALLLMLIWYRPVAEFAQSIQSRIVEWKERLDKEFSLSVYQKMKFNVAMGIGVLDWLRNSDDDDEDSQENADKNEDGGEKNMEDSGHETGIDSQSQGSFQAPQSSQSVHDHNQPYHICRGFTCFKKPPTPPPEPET

[4] = Trypanosoma cruzi growth suppression in host cells – NIH3T3 host cells, beta-gal luminescence, confirmation (AID 2044); type: functional, cell-based;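 note: intracellular parasites grown in NIH/3T3 mouse fibroblasts as host cells; luminescent beta-galactosidase reporter signal from transgenic T. cruzi replicating inside host cells; inhibitors lower the luminescence signal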
cells = type: functional
[5] = molecular target: FAD-linked sulfhydryl oxidase ALR (Homo sapiens, UniProt P55789); assay: ALR-catalysed DTT oxidation blockers – biochemical, H2O2 detection, luminescence, cherry-pick, dose response (AID 493248)
FAD-linked sulfhydryl oxidase ALR, sequence (P55789 whole entry): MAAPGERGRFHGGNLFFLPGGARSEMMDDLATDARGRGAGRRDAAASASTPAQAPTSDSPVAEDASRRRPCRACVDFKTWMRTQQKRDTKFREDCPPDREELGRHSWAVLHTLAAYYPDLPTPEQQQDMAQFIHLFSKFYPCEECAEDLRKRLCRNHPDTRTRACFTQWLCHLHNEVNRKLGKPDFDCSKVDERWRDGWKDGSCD

[6] = THP-1 cell cytotoxicity, dose response, cytotoxicity control for non-replicating M. tuberculosis project (AID 489025); type: functional
Vero [7] = assay: cells; type: functional, cell-based; conditions: Chlorocebus sabaeus
Vero [8] = assay: cells; type: functional; conditions: Chlorocebus sabaeus
P388 = assay: cells; type: functional; conditions: Mus musculus
SN12K1 = assay: cells; type: functional; conditions: Homo sapiens
P388/ADR = assay: cells; type: functional; conditions: Mus musculus
Nonstructural protein 1 = Nonstructural protein 1 (Influenza A virus, UniProt Q194T2); type: functional, Influenza A virus (A/California/07/2009(H1N1))
Nonstructural protein 1, sequence (Q194T2 whole entry): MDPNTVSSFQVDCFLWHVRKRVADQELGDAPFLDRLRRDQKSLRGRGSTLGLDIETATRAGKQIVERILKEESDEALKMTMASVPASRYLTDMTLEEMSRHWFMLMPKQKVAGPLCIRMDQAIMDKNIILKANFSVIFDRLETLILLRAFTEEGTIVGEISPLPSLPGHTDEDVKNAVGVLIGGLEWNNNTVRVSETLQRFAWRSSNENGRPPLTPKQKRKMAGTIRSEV

Cytochrome P450 3A4 = Cytochrome P450 3A4 (Homo sapiens, UniProt P08684);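 note: CYP3A4 tested as one member of a cytochrome P450 panel screen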
Cytochrome P450 3A4, sequence (P08684 whole entry): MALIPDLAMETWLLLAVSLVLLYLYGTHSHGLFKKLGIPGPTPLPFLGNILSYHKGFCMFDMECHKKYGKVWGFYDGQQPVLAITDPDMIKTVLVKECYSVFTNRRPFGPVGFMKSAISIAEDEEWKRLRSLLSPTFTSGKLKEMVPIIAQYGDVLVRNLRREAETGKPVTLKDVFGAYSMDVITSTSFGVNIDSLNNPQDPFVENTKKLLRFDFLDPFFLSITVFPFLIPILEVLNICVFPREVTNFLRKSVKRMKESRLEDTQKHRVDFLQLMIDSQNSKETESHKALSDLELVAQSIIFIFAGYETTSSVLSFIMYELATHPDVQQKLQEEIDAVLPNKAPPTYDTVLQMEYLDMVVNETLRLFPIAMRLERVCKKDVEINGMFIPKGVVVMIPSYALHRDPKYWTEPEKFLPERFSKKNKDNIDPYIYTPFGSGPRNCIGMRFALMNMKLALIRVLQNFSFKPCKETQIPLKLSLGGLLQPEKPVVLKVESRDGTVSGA

Protein RecA = molecular target: T1, Protein RecA (Mycobacterium tuberculosis, UniProt P9WHJ3); assay: Fluorescence Cell-Free Homogeneous Dose Retest to Identify Inhibitors of RecA-Intein Splicing Activity. [Related pubchem assays (depositor defined):AID2097, AID2223, AID489010, AID492950]; type: functional
T1 sequence (P9WHJ3 whole entry): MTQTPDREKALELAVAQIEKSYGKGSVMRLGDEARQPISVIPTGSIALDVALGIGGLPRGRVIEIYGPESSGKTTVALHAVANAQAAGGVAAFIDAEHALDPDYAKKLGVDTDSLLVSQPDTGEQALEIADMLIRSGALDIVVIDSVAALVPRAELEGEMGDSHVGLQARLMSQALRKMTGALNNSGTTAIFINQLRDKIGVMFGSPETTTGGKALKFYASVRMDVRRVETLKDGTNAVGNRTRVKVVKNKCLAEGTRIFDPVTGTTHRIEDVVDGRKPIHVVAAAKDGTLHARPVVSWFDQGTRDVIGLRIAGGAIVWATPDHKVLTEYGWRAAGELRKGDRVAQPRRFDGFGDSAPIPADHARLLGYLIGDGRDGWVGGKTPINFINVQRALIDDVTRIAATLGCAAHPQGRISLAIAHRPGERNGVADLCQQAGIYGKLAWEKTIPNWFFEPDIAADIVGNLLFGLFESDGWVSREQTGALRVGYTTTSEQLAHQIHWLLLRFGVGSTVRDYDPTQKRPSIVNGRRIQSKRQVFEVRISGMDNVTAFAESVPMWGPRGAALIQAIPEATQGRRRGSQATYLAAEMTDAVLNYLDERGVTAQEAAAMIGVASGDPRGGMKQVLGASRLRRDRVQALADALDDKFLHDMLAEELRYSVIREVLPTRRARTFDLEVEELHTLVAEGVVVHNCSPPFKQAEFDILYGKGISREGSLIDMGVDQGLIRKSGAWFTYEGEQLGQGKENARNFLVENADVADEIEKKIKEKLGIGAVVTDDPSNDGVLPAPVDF

[9] = molecular target: T2, Replicative DNA helicase DnaB (Mycobacterium tuberculosis, UniProt P9WMR3); assay: DnaB intein splicing inhibitors, dose response, biochemical, cell-free fluorescence (AID 449749); type: functional
T2 sequence (P9WMR3 whole entry): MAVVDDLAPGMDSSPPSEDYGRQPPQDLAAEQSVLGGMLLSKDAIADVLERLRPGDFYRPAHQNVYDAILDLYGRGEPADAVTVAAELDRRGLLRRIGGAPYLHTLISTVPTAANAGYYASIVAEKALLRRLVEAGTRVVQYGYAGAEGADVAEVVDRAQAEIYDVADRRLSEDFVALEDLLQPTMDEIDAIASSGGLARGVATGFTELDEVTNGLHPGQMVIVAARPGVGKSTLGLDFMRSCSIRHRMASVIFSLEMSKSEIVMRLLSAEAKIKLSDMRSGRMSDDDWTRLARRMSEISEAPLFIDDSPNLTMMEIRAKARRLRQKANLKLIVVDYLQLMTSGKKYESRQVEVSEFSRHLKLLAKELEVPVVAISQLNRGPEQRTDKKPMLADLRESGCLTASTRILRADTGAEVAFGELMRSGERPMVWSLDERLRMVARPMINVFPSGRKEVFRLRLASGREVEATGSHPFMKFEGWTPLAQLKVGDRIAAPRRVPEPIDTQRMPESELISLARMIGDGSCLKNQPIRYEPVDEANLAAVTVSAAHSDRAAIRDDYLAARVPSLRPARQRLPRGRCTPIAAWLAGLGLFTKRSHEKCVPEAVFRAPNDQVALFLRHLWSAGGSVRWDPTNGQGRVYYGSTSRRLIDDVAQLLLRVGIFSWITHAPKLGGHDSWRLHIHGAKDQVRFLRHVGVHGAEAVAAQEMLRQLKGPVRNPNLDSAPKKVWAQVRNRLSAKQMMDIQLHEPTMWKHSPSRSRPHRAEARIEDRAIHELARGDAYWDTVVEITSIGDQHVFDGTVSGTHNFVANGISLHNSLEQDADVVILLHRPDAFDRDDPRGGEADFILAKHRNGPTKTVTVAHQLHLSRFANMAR

Row | Compound | CC50 [1] | CC50 [2] | IC50 (cells) | CC50 [6] | GI50 (P388) | GI50 (SN12K1) | GI50 (P388/ADR) | other results
1 | Cc1ccc2nc(-c3ccccn3)c(NC3CCCC3)n2c1 | 16.5 µM (active) | > 20 µM (active) | 4.95 µM (active) | 14.3 µM (active) |  |  |  | AC50 (INS1): 8.58 µM (active); EC50 [3]: > 60 µM (not active); IC50 (Large T antigen): 11.6 µM (active); EC50 [4]: 1.74 µM (active); AC50 [5]: 7.26 µM (active)
2 | Cc1ccc(OCCCCCCN2CCNCC2)c(Br)c1 |  |  |  |  |  |  |  | IC50 (Vero [7]): 19.7 µM (active); CC50 (Vero [8]): 21.8 µM (active)
3 | Cc1csc(/N=C(/NCCN2CCOCC2)Nc2nc(C)cs2)n1 |  |  |  |  | > 31.6 µM (inactive) | > 100 µM (inactive) | > 80.4 µM (inactive) | 
4 | N=C(N)NCCCCCCC(=O)NC(O)C(=O)NCCCCNCCCN (stereo unspecified) |  |  |  |  | 30.1 µM (inactive) | 731 µM (inactive) | 55.2 µM (inactive) | 
5 | COC(=O)C(C/C=C(\C)c1ccc(Cl)cc1)C(C)=O (stereo unspecified) |  |  |  |  | 20 µM (inactive) | 21.8 µM (inactive) | 23.6 µM (inactive) | 
6 | C/C(=N\Nc1nc2ccccc2[nH]1)c1ccc(N2CCOCC2)cc1 |  | > 20 µM (active) | 20.3 µM (active) |  |  |  |  | 
7 | C/C(=N\NC(=O)c1c[nH]c2ccccc12)c1ccccn1 | 2.01 µM (active) | 12.1 µM (active) | 4.29 µM (active) | 6.55 µM (active) |  |  |  | EC50 [3]: 3.97 µM (active); EC50 [4]: 1.73 µM (active); IC50 (Nonstructural protein 1): 3.17 µM (active)
8 | c1ccc(CCCCN2CCC(c3ccccc3)CC2)cc1 |  |  |  |  |  |  |  | AC50 (Cytochrome P450 3A4): inconclusive
9 | O=C1c2ccccc2-n2c1nc1ccccc1c2=O [TRYPTANTHRIN] | > 20 µM (active) | > 20 µM (active) | 0.33 µM (active) | 17.5 µM (active) |  |  |  | EC50 (Protein RecA): 643 nM (active); AC50 [9]: 1.08 µM (active)

— ChEMBL document CHEMBL1201862, “PubChem BioAssay data set” (2004)
